Data as given in US20140045189A1 (priority 2009, published 2014).
Where two headings read alike, the source gives them in different places.

What was measured:
Salmonella Typhimurium = conditions: 30 min, TSA-Y, control […]10^9 CFU/ml
Method: (§1) Listeria monocytogenes EGDe (1/2a, internal number 2964) is used as a model organism for Gram-positive bacteria and as a DNA quantification standard for real-time PCR. Salmonella enterica serovar Typhimurium (NCTC 12023) is used as a model organism for Gram-negative bacteria and as a DNA quantification standard for real-time PCR. The bacteria are maintained at −80° C. using MicroBank™ technology (Pro-Lab Diagnostics, Richmont Hill, Canada) and are part of the collection of bacterial strains at the Institute of Milk Hygiene, Milk Technology and Food Science, University of Veterinary Medicine, Vienna, Austria. All bacterial strains are grown overnight in tryptone soya broth with 0.6% (w/v) yeast extract (TSB-Y; Oxoid, Hampshire, United Kingdom) at the respective optimal growth temperatures (37° C., L. monocytogenes and 42° C., S. Typhimurium).
(§2) The influence of different MgCl2 concentrations on the viability of Listeria monocytogenes and Salmonella Typhimurium is investigated. The target organisms are incubated for 30 min with 3 different concentrations of MgCl2 (1 M, 2 M and 3 M) and at 3 different temperatures (35° C., 38° C. and 45° C.) and the CFUs on TSA-Y agar plates after the treatment are compared with the control sample.

Listeria monocytogenes = conditions: 30 min, TSA-Y, control 2.78×10^9 CFU/ml
Method: as §1, §2

For `[Cl-].[Cl-].[Mg+2]` [MgCl2, magnesium chloride], the “CFU/ml of S. Typhimurium after treatment” value (Salmonella Typhimurium; 1 M MgCl2, 35° C.) was 1.15×10^9 CFU/ml, the “CFU/ml of S. Typhimurium after treatment” value (Salmonella Typhimurium; 1 M MgCl2, 38° C.) was 8.33×10^8 CFU/ml and the “CFU/ml of S. Typhimurium after treatment” value (Salmonella Typhimurium; 1 M MgCl2, 45° C.) was 4.1×10^8 CFU/ml. The “CFU/ml of S. Typhimurium after treatment” value (Salmonella Typhimurium; 2 M MgCl2, 35° C.) was 2.3×10^8 CFU/ml, the “CFU/ml of S. Typhimurium after treatment” value (Salmonella Typhimurium; 2 M MgCl2, 38° C.) was 1.35×10^8 CFU/ml and the “CFU/ml of S. Typhimurium after treatment” value (Salmonella Typhimurium; 3 M MgCl2, 35° C.) was 5.75×10^7 CFU/ml. For the same molecule, the “CFU/ml of S. Typhimurium after treatment” value (Salmonella Typhimurium; 3 M MgCl2, 38° C.) was 2.0×10^7 CFU/ml, the “CFU/ml of L. monocytogenes after treatment” value (“CFU/ml of L. monocytogenes” below) (Listeria monocytogenes; 1 M MgCl2, 35° C.) was 3.86×10^9 CFU/ml and the “CFU/ml of L. monocytogenes” value (Listeria monocytogenes; 1 M MgCl2, 38° C.) was 4.06×10^9 CFU/ml. For the same molecule, the “CFU/ml of L. monocytogenes” value (Listeria monocytogenes; 1 M MgCl2, 45° C.) was 4.39×10^9 CFU/ml, the “CFU/ml of L. monocytogenes” value (Listeria monocytogenes; 2 M MgCl2, 35° C.) was 3.10×10^9 CFU/ml and the “CFU/ml of L. monocytogenes” value (Listeria monocytogenes; 2 M MgCl2, 38° C.) was 3.64×10^9 CFU/ml. The “CFU/ml of L. monocytogenes” value (Listeria monocytogenes; 2 M MgCl2, 45° C.) was 1.68×10^9 CFU/ml, the “CFU/ml of L. monocytogenes” value (Listeria monocytogenes; 3 M MgCl2, 35° C.) was 1.76×10^9 CFU/ml and the “CFU/ml of L. monocytogenes” value (Listeria monocytogenes; 3 M MgCl2, 38° C.) was 8.5×10^8 CFU/ml. The “CFU/ml of L. monocytogenes” value (Listeria monocytogenes; 3 M MgCl2, 45° C.) was 1.5×10^8 CFU/ml.
